Active and inactive are the calls of the source.

This passage reports EC50, IC50 and AC50 results from ChEMBL document CHEMBL1201862, “PubChem BioAssay data set” (2004).

The target of one test is Beta-galactosidase (Escherichia coli, UniProt Q8VNN2). In words: PubChem AID 485352. Type of test: functional.
Test [1] deals with Type-1 angiotensin II receptor (Homo sapiens, UniProt P30556). In words: AT1 receptor antagonists, dose response, selectivity assay for APJ receptor antagonist project, cell-based, uHTS hits (AID 463214).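 Also: antagonist potency against angiotensin II stimulated AT1 response.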 Type of test: functional.
Sequence of Type-1 angiotensin II receptor (P30556 whole entry): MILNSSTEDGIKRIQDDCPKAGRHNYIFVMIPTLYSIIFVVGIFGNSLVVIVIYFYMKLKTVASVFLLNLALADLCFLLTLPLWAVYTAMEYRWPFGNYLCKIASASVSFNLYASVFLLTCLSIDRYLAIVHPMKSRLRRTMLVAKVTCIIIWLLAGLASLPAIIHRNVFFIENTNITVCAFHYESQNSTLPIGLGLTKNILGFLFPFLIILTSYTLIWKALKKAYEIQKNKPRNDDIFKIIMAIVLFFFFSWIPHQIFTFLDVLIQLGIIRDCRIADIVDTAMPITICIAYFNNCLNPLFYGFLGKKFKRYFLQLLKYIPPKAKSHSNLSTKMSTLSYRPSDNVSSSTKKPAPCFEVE
The target of test [2] is Potassium voltage-gated channel subfamily KQT member 2 (Rattus norvegicus, UniProt O88943). In words: Mode of action assay-Dose response assay for compounds that activate KCNQ2 potassium channels on automated patch clamp. [Related pubchem assays (depositor defined):AID2239, AID2258, AID2287, AID493113]. Type of test: functional. (The patch-clamp technique gives a direct electrical read-out from membranes.)

Test [3] has as its target T1, Potassium voltage-gated channel subfamily KQT member 4 (Homo sapiens, UniProt P56696). In words: human KCNQ4 channel current potentiation, dose response, selectivity assay for KCNQ2 activator project, automated patch clamp, CHO cells (AID 493043). Format: functional, cell-based.
Test [4] has as its target Potassium voltage-gated channel subfamily KQT member 2/member 3 (Rattus norvegicus, UniProt O88943+O88944). In words: Mode of action assay-Dose response assay for KCNQ2 activators in the KCNQ2/KCNQ3 co-expressing cells on automated patch clamp. [Related pubchem assays (depositor defined):AID2239, AID2258, AID2287]. Format: functional.
Test [5] addresses T1, Potassium voltage-gated channel subfamily KQT member 4. Description: KCNQ4 channel modulation, potentiation or inhibition, dose response, selectivity assay for KCNQ2 activator project, thallium flux, KCNQ4-expressing cells (AID 504416). Type of test: functional, cell-based.
Test [6] deals with Dual specificity protein kinase CLK1 (Homo sapiens, UniProt P49759). Description: CLK1 kinase inhibitors, off-target check, dose response, selectivity assay for Dyrk1A inhibitor project, biochemical, cherry-picked samples (AID 588811).
Sequence of Dual specificity protein kinase CLK1 (P49759 whole entry): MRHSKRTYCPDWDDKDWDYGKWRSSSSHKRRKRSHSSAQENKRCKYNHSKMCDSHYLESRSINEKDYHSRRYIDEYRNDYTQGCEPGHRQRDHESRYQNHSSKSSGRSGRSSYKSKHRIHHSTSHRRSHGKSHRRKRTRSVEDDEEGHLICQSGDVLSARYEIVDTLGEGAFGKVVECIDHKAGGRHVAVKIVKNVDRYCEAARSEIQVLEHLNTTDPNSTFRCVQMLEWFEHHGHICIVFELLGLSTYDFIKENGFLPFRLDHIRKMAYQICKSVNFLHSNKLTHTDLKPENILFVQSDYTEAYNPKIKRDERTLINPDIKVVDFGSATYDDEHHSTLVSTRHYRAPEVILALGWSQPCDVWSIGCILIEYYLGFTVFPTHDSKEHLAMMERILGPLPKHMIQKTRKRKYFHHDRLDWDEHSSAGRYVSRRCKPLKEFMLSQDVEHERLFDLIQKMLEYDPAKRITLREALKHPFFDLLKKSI
The target of test [7] is Acyl-homoserine lactone acylase PvdQ (Pseudomonas aeruginosa (strain LESB58), UniProt Q9I194). Description: P. aeruginosa PvdQ acylase inhibitors, dose response, biochemical, fluorescence, plate reader and imaging, cherry-picks (AID 493231).
The subject of test [8] is HeLa. In words: HeLa cell cytotoxicity, dose response, cytotoxicity control, 48 h, plate reader, cherry-picks (AID 504942). Type of test: functional, cell-based. The settings on record: Homo sapiens.
A short description of test [9]: Luminescence Cell-Based Dose Confirmation HTS to Identify Activators of 5'UTR Stem-Loop Driven Alpha-Synuclein mRNA Translation in H4 Neuroglioblastoma Cells. [Related pubchem assays: 1829 (Project Summary), 1814 (Primary HTS)]. Type of test: functional.
The nature of test [10]: Luminescence Cell-Based Dose Response HTS to Identify Activators of Luciferase Translation or Activity in H4 […] Cells. [Related pubchem assays: 1829 (Project Summary), 1814 (Primary HTS)]. Type of test: functional.
The nature of test [11]: cells. Format: functional, cell-based.
The next test relates to H4. Description: Luminescence Cell-Based Dose Response HTS to Identify Activators of 5'UTR Stem-Loop Driven Prion Protein mRNA Translation in H4 Neuroglioblastoma Cells. [Related pubchem assays: 1829 (Project Summary), 1814 (Primary HTS)]. Format: functional. The conditions noted are these: Homo sapiens.
Test [12] is described as follows: cells. Type of test: functional, cell-based. This is another data set of the same source.
The test system of another test is HEK293. Description: cells. Format: functional, cell-based. The conditions noted are these: Homo sapiens.
Test [13] has as its target Nuclear receptor subfamily 0 group B member 1 (Homo sapiens, UniProt P51843). In words: Luminescence-based cell-based high throughput dose response assay for inhibitors of the orphan nuclear receptor subfamily 0, group B, member 1 (DAX1; NR0B1). [Related pubchem assays (depositor defined):AID504766, AID504790]. Type of test: functional.
The nature of test [14]: HepG2 cell cytotoxicity, dose response, cytotoxicity control, ATP luminescence, cherry-pick, activator set 2 (AID 1053143). Type of test: functional, cell-based.
The test system of test [15] is HeLa. Description: HeLa cell cytotoxicity, dose response, cytotoxicity control for MITF activator project, CellTiter-Glo luminescence, cherry-pick samples (AID 540259). The settings on record: Homo sapiens. Type of test: functional, cell-based.
For test [16], the target named is T2, Rac GTPase-activating protein 1 (Homo sapiens, UniProt Q9H0H5).
T2 sequence (Q9H0H5 whole entry): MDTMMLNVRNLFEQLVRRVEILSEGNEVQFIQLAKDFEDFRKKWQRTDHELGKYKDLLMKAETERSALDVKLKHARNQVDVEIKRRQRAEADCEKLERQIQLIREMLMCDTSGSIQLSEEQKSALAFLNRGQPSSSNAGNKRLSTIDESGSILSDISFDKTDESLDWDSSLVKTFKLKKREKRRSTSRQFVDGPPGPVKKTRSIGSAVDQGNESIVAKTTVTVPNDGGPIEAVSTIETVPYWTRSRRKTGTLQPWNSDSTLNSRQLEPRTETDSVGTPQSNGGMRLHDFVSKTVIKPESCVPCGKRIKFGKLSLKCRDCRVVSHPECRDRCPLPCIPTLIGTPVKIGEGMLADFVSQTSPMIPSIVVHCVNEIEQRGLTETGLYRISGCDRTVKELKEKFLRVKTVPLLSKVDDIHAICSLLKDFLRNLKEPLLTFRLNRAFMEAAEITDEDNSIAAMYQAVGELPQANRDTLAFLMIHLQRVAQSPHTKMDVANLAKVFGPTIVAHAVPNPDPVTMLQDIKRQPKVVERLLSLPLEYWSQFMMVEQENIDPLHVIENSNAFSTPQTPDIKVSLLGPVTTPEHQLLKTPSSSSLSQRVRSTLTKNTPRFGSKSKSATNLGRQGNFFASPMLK
Description: MgcRacGAP GTPase-activating activity inhibitors, confirmation, biochemical, ADP Hunter fluorescence, primary and confirmatory (AID 624330). Type of test: functional.

In test [17] the target is T3, Short transient receptor potential channel 4 (Mus musculus, UniProt Q9QUQ5).
T3 sequence (Q9QUQ5 whole entry): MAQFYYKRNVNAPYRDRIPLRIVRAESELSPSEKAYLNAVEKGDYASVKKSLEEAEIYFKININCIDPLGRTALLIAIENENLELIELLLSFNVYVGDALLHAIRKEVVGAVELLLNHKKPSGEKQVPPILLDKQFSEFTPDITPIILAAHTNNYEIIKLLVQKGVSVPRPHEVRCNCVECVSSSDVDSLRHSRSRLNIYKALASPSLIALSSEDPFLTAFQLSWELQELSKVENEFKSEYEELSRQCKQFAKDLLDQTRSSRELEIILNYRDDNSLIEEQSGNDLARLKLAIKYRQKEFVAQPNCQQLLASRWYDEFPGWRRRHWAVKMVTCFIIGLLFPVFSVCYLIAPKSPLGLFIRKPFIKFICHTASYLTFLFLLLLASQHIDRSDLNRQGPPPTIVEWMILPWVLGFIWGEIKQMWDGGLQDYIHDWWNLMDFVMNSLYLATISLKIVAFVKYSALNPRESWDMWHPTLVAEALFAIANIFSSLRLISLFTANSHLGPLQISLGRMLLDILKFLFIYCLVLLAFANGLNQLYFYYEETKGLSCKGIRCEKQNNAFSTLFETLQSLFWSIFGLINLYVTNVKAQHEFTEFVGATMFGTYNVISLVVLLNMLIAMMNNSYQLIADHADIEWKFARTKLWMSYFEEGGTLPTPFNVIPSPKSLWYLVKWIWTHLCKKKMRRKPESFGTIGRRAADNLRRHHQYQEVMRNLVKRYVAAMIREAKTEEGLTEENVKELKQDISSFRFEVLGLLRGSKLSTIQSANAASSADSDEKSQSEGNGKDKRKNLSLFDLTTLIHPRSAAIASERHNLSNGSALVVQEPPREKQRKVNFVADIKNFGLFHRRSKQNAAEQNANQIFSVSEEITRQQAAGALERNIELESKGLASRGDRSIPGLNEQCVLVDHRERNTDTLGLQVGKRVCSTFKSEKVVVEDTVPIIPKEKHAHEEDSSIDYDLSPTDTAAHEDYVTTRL
In words: SAR Analysis for the identification of selective inhibits of the transient receptor potential cation channel C4 (TRPC4): Automated Electrophysiology. [Related pubchem assays (depositor defined):AID2256]. Type of test: functional.

Test [18] has as its target T3, Short transient receptor potential channel 4. Description: TRPC4 inhibition under acetylcholine activation, SAR follow-up, cell-based, acetylcholine stimulus, HEK293 TRPC4, Fluo-4 (AID 492996). Type of test: functional.
Test [19] has the same target. Description: SAR Analysis for the identification of selective inhibitors of the transient receptor potential cation channel C4 (TRPC4): TRPC4 Serotonin Receptor CRC MPD assay. [Related pubchem assays (depositor defined):AID2247, AID2256]. Format: functional.
For test [20], the target named is Short transient receptor potential channel 6 (Mus musculus, UniProt Q61143). In words: TRPC6 inhibition potency of TRPC4 inhibitor analogs, dose response, selectivity assay for selective TRPC4 inhibitor project, HEK293 cells, membrane potential dye, IC50 (AID 492987). Format: functional, cell-based.
Sequence of Short transient receptor potential channel 6 (Q61143 whole entry): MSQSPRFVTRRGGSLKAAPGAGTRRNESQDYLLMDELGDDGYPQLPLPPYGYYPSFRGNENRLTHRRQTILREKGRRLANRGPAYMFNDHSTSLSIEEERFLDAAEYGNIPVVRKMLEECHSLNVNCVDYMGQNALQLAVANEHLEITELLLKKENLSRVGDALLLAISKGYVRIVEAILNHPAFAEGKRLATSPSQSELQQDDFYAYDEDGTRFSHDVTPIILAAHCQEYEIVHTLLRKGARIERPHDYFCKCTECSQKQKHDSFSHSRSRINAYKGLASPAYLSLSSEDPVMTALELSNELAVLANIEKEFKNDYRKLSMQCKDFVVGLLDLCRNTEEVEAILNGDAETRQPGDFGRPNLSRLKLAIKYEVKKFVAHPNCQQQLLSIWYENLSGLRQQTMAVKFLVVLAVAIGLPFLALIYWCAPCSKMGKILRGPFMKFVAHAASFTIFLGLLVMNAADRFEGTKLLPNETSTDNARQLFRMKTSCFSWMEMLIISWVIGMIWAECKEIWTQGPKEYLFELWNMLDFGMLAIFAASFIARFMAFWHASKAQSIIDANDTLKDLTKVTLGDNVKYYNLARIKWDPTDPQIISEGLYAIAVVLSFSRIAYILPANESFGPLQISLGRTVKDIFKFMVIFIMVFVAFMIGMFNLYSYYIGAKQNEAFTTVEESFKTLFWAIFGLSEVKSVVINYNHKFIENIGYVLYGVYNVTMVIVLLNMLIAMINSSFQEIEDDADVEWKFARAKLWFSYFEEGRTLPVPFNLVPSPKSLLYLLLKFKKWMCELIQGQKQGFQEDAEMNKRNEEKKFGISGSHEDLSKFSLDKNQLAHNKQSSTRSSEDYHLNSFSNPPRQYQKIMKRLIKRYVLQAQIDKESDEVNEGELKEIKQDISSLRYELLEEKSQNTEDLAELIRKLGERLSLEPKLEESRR
Test [21] has as its target T3, Short transient receptor potential channel 4. In words: TRPC4 inhibitor concentration-response, dose response, cell-based, HEK293 TRPC4/mu-opioid, DAMGO stimulus, Fluo-4 (AID 492994). Format: functional.
The target of the next test is Cytochrome P450 2C19 (Homo sapiens, UniProt P33261). Description: Cytochrome panel assay with activity outcomes. Panel member name: p450-cyp2c19 Compounds with AC50 equal or less than 10 uM are considered active. The settings on record: read-out: AC50. Format: functional.
Sequence of Cytochrome P450 2C19 (P33261 whole entry): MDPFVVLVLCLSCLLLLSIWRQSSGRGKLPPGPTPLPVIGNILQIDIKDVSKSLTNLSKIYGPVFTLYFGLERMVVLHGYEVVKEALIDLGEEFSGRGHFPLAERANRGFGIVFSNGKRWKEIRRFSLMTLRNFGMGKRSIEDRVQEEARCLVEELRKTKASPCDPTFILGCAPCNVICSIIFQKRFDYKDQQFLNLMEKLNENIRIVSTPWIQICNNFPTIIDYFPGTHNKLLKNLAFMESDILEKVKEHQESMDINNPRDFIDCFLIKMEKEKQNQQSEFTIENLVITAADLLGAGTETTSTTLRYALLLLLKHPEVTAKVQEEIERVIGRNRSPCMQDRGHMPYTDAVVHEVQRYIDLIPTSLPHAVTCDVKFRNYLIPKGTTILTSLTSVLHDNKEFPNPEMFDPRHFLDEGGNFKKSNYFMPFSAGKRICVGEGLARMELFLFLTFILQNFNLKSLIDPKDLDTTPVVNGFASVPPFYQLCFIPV
The target of the next test is T4, Cytochrome P450 1A2 (Homo sapiens, UniProt P05177).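 Also: PubChem cytochrome P450 panel assay, CYP1A2 panel member.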
T4 sequence (P05177 whole entry): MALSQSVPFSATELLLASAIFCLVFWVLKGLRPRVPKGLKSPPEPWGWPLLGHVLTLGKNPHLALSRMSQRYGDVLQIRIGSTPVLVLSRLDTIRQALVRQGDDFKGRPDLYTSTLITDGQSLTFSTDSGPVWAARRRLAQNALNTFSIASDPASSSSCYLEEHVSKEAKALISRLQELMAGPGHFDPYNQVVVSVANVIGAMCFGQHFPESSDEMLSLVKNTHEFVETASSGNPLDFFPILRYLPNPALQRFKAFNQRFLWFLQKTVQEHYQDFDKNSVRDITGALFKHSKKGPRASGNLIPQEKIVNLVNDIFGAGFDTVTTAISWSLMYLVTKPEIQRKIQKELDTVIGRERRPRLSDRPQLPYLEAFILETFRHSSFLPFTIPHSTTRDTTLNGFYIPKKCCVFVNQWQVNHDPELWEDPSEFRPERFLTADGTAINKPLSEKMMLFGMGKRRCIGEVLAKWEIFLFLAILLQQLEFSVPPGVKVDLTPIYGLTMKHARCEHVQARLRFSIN

In test [22] the target is Voltage-gated inwardly rectifying potassium channel KCNH2 (Homo sapiens, UniProt Q12809). The conditions noted are these: Potency.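 Also: confirmatory quantitative high-throughput screen measuring inhibition of hERG channel activity.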
Sequence of Voltage-gated inwardly rectifying potassium channel KCNH2 (Q12809 whole entry): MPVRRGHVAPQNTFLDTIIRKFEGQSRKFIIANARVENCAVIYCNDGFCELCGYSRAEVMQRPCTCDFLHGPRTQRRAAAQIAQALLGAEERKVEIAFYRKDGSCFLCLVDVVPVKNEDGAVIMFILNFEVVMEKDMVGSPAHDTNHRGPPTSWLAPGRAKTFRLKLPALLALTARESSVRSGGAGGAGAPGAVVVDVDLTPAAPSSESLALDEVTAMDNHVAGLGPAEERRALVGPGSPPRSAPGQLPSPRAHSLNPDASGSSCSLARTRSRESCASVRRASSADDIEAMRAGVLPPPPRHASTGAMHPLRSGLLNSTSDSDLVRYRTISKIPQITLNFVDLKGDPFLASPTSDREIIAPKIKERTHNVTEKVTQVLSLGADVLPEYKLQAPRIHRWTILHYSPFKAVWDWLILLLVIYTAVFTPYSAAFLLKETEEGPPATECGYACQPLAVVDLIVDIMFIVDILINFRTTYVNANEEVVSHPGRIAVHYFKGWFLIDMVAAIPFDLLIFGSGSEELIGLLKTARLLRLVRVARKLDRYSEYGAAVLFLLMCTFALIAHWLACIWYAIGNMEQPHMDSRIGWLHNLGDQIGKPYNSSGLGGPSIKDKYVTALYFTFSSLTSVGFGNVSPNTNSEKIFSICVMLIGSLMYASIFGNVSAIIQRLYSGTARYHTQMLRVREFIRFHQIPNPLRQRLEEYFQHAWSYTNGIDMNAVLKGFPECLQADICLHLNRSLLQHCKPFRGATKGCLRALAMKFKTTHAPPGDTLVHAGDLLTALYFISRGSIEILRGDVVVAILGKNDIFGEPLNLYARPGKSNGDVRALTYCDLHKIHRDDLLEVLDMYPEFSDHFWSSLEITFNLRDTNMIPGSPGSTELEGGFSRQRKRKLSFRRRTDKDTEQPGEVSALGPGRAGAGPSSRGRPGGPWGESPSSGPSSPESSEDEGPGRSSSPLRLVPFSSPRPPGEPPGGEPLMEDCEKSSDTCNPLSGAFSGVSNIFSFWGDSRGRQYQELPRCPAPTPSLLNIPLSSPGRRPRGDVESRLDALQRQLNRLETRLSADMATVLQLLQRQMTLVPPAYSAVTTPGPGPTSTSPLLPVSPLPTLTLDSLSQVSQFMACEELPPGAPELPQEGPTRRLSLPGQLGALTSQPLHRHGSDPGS

T1 sequence (P56696 whole entry): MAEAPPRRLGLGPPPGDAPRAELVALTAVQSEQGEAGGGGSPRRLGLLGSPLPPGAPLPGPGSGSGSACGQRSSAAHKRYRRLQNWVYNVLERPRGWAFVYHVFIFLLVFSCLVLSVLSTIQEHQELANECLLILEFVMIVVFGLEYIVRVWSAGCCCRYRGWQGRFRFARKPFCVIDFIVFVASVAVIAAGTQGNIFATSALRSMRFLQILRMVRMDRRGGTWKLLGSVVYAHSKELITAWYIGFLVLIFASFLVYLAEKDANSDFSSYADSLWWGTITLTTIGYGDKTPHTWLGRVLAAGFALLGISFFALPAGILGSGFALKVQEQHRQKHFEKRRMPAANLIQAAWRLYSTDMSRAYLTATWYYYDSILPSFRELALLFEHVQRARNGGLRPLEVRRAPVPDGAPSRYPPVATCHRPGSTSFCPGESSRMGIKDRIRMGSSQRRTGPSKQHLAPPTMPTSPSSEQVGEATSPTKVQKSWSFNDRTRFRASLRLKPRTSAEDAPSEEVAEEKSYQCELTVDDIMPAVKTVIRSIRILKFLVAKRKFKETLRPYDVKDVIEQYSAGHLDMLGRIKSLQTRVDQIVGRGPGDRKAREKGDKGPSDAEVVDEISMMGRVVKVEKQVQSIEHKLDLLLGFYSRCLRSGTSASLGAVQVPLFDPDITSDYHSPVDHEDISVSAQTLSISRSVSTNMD
Sequence of Nuclear receptor subfamily 0 group B member 1 (P51843 whole entry): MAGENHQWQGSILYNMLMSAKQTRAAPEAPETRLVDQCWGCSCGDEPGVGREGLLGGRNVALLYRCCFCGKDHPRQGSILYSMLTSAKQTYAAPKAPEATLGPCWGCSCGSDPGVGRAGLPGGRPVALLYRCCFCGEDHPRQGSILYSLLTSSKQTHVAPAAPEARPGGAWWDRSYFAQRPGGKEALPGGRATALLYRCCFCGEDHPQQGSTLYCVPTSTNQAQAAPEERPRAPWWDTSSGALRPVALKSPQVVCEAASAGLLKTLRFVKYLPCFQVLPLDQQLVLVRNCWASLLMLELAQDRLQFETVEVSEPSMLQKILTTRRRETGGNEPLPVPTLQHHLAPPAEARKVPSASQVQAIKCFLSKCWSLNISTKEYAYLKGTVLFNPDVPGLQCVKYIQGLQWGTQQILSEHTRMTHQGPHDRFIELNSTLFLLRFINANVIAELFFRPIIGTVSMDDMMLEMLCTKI

For orientation: EC50 means the midpoint of the concentration-response curve. Broadly, the IC50 is the concentration needed to halve the response being measured. Take `CC(=O)Oc1ccc(/C=C2/SC(=S)N(Cc3ccccc3)C2=O)cc1`: on Beta-galactosidase, the EC50 is > 40 µM (inactive). Further, in test [1], the IC50 was > 40 µM (not active).

As for `CCCCC(=O)Nc1c(C)cc(C)cc1Cl`, the 50% effective concentration (EC50) in test [2] was 2.14 µM (active); in test [3] it was 3.15 µM (active); in test [4], 2.69 µM (active); in test [5], 18.7 µM (active).

The term AC50 denotes the midpoint of the concentration-response curve, whichever way the signal moves. In the case of `CN(C)S(=O)(=O)c1ccc(Cl)c(C(=O)Nc2cccc3ncccc23)c1`, in test [6], the AC50 was 1.84 µM (active).

With `O=C(Nc1ncc([N+](=O)[O-])s1)c1cccc([N+](=O)[O-])c1`, the results for the half-maximal activity concentration (AC50) (in [7]; with HeLa [8]) were 10.3 µM (active) and 23.1 µM (active), respectively.

`O=C(Nc1ccccc1O)c1ccc(NC(=O)C2CC2)cc1`: the EC50 in [9] is 10.5 µM (active); in [10], 17.3 µM (active); in “cells [11]” it was 11.2 µM (active); in the test with H4, 12.3 µM (active); in “cells [12]” it was 51.3 µM (active). Also, the half-inhibitory concentration (IC50) in the test with HEK293 was 1.91 µM (active); in test [13] it was > 67.6 µM (inactive). Further, in test [14], the AC50 is 18.8 µM (active).

In the case of `O=C(Nc1ccc(O)cc1)c1cc2ccccc2c(=O)s1`, the AC50 in the test on HeLa [15] was > 350 µM (inactive). Moreover, the IC50 in [16] was 23.3 µM (active).

On to `CCc1ccc2nc(N3CCCC3)cc(C)c2c1`, for which the IC50 in test [17] was 2.05 µM (active); in test [18], 9.52 µM (active); in test [19], 4.23 µM (active); in test [20], 14.1 µM (active); in [21], 0.483 µM (active).

With `COc1ccc2c(c1)c(CC(=O)N1CCOCC1)c(C)n2C(=O)c1ccc(Cl)cc1` [INDOMETHACIN MORPHOLINYLAMIDE], the AC50 on Cytochrome P450 2C19 was 1.58 µM (inconclusive); on Cytochrome P450 1A2, 25.1 µM (inconclusive); in test [22] it was 35.5 µM (inconclusive).
